# Reference: patent publication US5322842A, “Tricyclic benzodiazepine derivates, their preparation, and pharmaceutical compositions containing them” (Fujisawa Pharmaceutical Co., Ltd., priority 1990, dated 1994)
# System: CCK receptor (rat pancreatic membranes)
# Assay: [125I] CCK-8 binding to rat pancreatic membranes
# Settings: test compound 1×10^-8 M, 50 pM 125I-CCK-8, 30 min, 37° C.
# Protocol: [^125 I ] CCK-8 binding to rat pancreatic membranes
# Rats were killed by a blow on the head and bled to death. Whole pancreas (about 0.7 g) was removed, minced in a small quantity of 50 mM Tris-HCl buffer (pH 7.4), and homogenized in 30 vol: of the buffer by a polytron homogenizer. The homogenate was centrifuged at 30000×g (16000 rpm) for 10 min. The pellet was then resuspended in the same buffer by a glass-teflon homogenizer and recentrifuged at 30000×g for 10 min. This procedure (washings) was repeated twice more. The final pellet (membrane) was suspended in incubation medium (see below) so as to obtain a final protein concentration of 2 mg/ml. All manipulations were done at 0°-4° C.
# (ii) Receptor binding assay
# The composition of incubation medium was as follows: 50 mM Tris-HCl (pH 7.4), 5 mM MgCl2, 5 mM dithiothreitol (DTT), 0.14 mg/ml bacitracin, and 0.2% bovine serum albumin (BSA). Freshly prepared membranes (200 μg protein) were incubated for 30 min under shaking at 37° C. in plastic tubes in 500 μl of incubation medium with 50 pM ^125 I-CCK-8 in the presence or absence of test compound (1×10^-8 M). To determine the non-specific binding, CCK-8 at 1 μM was added. […] After washing the filter with 50 mM Tris-HCl (pH 7.4) buffer containing 0.1% BSA, the radioactivity of the filter was counted. […] The effect of test compound was expressed as % inhibition of specific ^125 I-CCK-8 binding.
compound,measurement,value
"CN1CCN2C(=O)C(NC(=O)c3cc4ccccc4[nH]3)N=C(c3ccccc3F)c3cccc1c32 (racemic) [Example 2, (6RS)-1-methyl-5-oxo-6-(2-indolylcarbonylamino)-8-(2-fluorophenyl)-2,3,5,6-tetrahydro-1H-[1,4]diazepino-[1,7,6-de]quinoxaline]",Inhibition (%) of specific 125I-CCK-8 binding,95.7%
